What was measured:
A549 cells = assay: Cellular proliferation/cytotoxicity assay (Alamar Blue), A549; assay type: cell-based; settings: Homo sapiens, 72 h, Alamar Blue (Resazurin), read-out: Anti-proliterative/Cytotoxic activity (A549 cells)
Protocol: (§1) Cellular Proliferation/Cytotoxicity Assay:
(§2) The anti-proliferative activity of the compounds as described herein, is evaluated using the OvCAR3, HCT116 and A549 cell lines and the Alamar Blue (Resazurin) cell viability assay (O'Brien et al. Eur J Biochem 267, 5421-5426, 2000). Resazurin is reduced to the fluorescent resorufin by cellular dehydrogenase activity, correlating with viable, proliferating cells. Test compounds are dissolved as 10 mM solutions in DMSO and subsequently diluted. Cells like HCT116 or A549 cells were seeded into 96 well flat bottom plates at a density of 10000 cells/well (OvCAR3 cells), 1000 cells/well (HCT116 cells) or 2000 cells/well (A549 cells) in a volume of 200 μl/well. 24 hours after seeding, 1 μl each of the compound dilutions are added into each well of the 96 well plates. Each compound dilution is tested as at least as duplicates. Wells containing untreated control cells were filled with 200 μl DMEM (Dulbecco's Modified Eagle Medium) containing 0.5 vol % v:v DMSO. The cells are then incubated with the substances for 72 h at 37° C. in a humidified atmosphere containing 5 vol % CO2. To determine the viability of the cells, 20 μl of a Resazurin solution (90 mg/l) are added. After 4 h incubation at 37° C., the fluorescence is measured by extinction at λ=544 nm and an emission of λ=590 nm (Wallac Victor2; Perkin Elmer, USA). For the calculation of the cell viability, the emission value from untreated cells is set as 100% viability and the fluorescence intensity of treated cells are set in relation to the values of untreated cells. Viabilities are expressed as % values. The corresponding IC50 values of the compounds for cytotoxic activity are determined from the concentration-effect curves by means of non-linear regression. The analysis of the data is performed using a biostatistical program (GraphPad Prism, USA).
(§3) Representative IC50 values for anti-proliferative/cytotoxic potency determined in the aforementioned assay follow from the following table, in which the numbers of the compound correspond to the numbers of the examples.

OvCAR3 cells = assay: Cellular proliferation/cytotoxicity assay (Alamar Blue), OvCAR3; assay type: cell-based; settings: Homo sapiens, OVCAR-3, 72 h, Alamar Blue (Resazurin), read-out: Anti-proliferative/Cytotoxic activity (OvCAR3 cells)
Protocol: as §1, §2, §3

Row | Structure (SMILES) | IC50 (A549 cells) [µM] | IC50 (OvCAR3 cells) [µM]
1 | c1ccc(-c2cn3ccnc3nc2-c2ccc(CN3CCC(c4nc(-c5ccccn5)n[nH]4)CC3)cc2)cc1 [Example 1, 6-phenyl-7-(4-{[4-(3-pyridin-2-yl-1,2,4-triazol-5-yl)piperidin-1-yl]methyl}phenyl)imidazo[1,2-a]pyrimidine] | > 10 | < 10
2 | c1ccc(-c2cn3ncnc3nc2-c2ccc(CN3CCC(c4n[nH]c(-c5ccccn5)n4)CC3)cc2)cc1 [Example 2, 6-phenyl-5-(4-{[4-(5-pyridin-2-yl-1,2,4-triazol-3-yl)piperidin-1-yl]methyl}phenyl)[1,2,4]triazolo[1,5-a]pyrimidine] | > 10 | < 10
3 | Cc1nc2nc(-c3ccc(CN4CCC(c5n[nH]c(-c6ccccn6)n5)CC4)cc3)c(-c3ccccc3)cn2n1 [Example 3, 2-methyl-6-phenyl-5-(4-{[4-(5-pyridin-2-yl-1,2,4-triazol-3-yl)piperidin-1-yl]methyl}phenyl)[1,2,4]triazolo[1,5-a]pyrimidine] | < 10 | < 10
4 | c1ccc(-c2cn3nc(C4CC4)nc3nc2-c2ccc(CN3CCC(c4n[nH]c(-c5ccccn5)n4)CC3)cc2)cc1 [Example 4, 2-cyclopropyl-6-phenyl-5-(4-{[4-(5-pyridin-2-yl-1,2,4-triazol-3-yl)piperidin-1-yl]methyl}phenyl)[1,2,4]triazolo[1,5-a]pyrimidine] | < 10 | < 10
5 | c1ccc(-c2cn3ccnc3nc2-c2ccc(CN3CCC(c4cc(-c5ccccn5)n[nH]4)CC3)cc2)cc1 [Example 5, 6-phenyl-7-(4-{[4-(3-pyridin-2-yl-pyrazol-5-yl)piperidin-1-yl]methyl}phenyl)imidazo[1,2-a]pyrimidine] | < 10 | < 10
6 | c1ccc(-c2cn3ccnc3nc2-c2ccc(CN3CCC(c4n[nH]c(-c5ccncc5)n4)CC3)cc2)cc1 [Example 6, 6-phenyl-7-(4-{[4-(5-pyridin-4-yl-1,2,4-triazol-3-yl)piperidin-1-yl]methyl}phenyl)imidazo[1,2-a]pyrimidine] | < 10 | < 10
7 | c1ccc(-c2cn3nc(C4CCC4)nc3nc2-c2ccc(CN3CCC(c4n[nH]c(-c5ccccn5)n4)CC3)cc2)cc1 [Example 7, 2-cyclobutyl-6-phenyl-5-(4-{[4-(5-pyridin-2-yl-1,2,4-triazol-3-yl)piperidin-1-yl]methyl}phenyl)[1,2,4]triazolo[1,5-a]pyrimidine] | > 10 | < 10
8 | N#Cc1cnc2nc(-c3ccc(CN4CCC(c5n[nH]c(-c6ccccn6)n5)CC4)cc3)c(-c3ccccc3)cn12 [Example 8, 6-phenyl-7-(4-{[4-(5-pyridin-2-yl-1,2,4-triazol-3-yl)piperidin-1-yl]methyl}phenyl)imidazo[1,2-a]pyrimidine-3-carbonitrile] | > 10 | < 10
9 | Fc1cnc2nc(-c3ccc(CN4CCC(c5n[nH]c(-c6ccccn6)n5)CC4)cc3)c(-c3ccccc3)cn12 [Example 9, 3-fluoro-6-phenyl-7-(4-{[4-(5-pyridin-2-yl-1H-1,2,4-triazol-3-yl)piperidin-1-yl]methyl}phenyl)imidazo[1,2-a]pyrimidine] | > 10 | < 10
10 | CNc1c(-c2ccccc2)c(-c2ccc(CN3CCC(c4n[nH]c(-c5ccccn5)n4)CC3)cc2)nc2nccn12 [Example 10, N-methyl-6-phenyl-7-(4-{[4-(5-pyridin-2-yl-1,2,4-triazol-3-yl)piperidin-1-yl]methyl}phenyl)imidazo[1,2-a]pyrimidin-5-amine] | > 10 | < 10
11 | Brc1cnc2nc(-c3ccc(CN4CCC(c5n[nH]c(-c6ccccn6)n5)CC4)cc3)c(-c3ccccc3)cn12 [Example 11, 3-bromo-6-phenyl-7-(4-{[4-(5-pyridin-2-yl-1,2,4-triazol-3-yl)piperidin-1-yl]methyl}phenyl)imidazo[1,2-a]pyrimidine] | > 10 | < 10
12 | Clc1cnc2nc(-c3ccc(CN4CCC(c5n[nH]c(-c6ccccn6)n5)CC4)cc3)c(-c3ccccc3)cn12 [Example 12, 3-chloro-6-phenyl-7-(4-{[4-(5-pyridin-2-yl-1,2,4-triazol-3-yl)piperidin-1-yl]methyl}phenyl)imidazo[1,2-a]pyrimidine] | < 10 | < 10
13 | C#Cc1cnc2nc(-c3ccc(CN4CCC(c5n[nH]c(-c6ccccn6)n5)CC4)cc3)c(-c3ccccc3)cn12 [Example 13, 3-ethynyl-6-phenyl-7-(4-{[4-(5-pyridin-2-yl-1,2,4-triazol-3-yl)piperidin-1-yl]methyl}phenyl)imidazo[1,2-a]pyrimidine] | < 10 | < 10
14 | Cc1cccc(-c2n[nH]c(C3CCN(Cc4ccc(-c5nc6nc(C)nn6cc5-c5ccccc5)cc4)CC3)n2)n1 [Example 74, 2-Methyl-5-[4-({4-[3-(6-methylpyridin-2-yl)-1H-1,2,4-triazol-5-yl]piperidin-1-yl}methyl)phenyl]-6-phenyl[1,2,4]triazolo[1,5-a]pyrimidine] | < 10 | 
15 | Cc1cccc(-c2n[nH]c(C3CCN(Cc4ccc(-c5nc6ccnn6cc5-c5ccccc5)cc4)CC3)n2)n1 [Example 75, 5-[4-({4-[3-(6-Methylpyridin-2-yl)-1H-1,2,4-triazol-5-yl]piperidin-1-yl}methyl)phenyl]-6-phenylpyrazolo[1,5-a]pyrimidine] | < 10 | 
16 | c1ccc(-c2cn3nccc3nc2-c2ccc(CN3CCC(c4cc(-c5ccccn5)n[nH]4)CC3)cc2)cc1 [Example 76, 6-Phenyl-5-(4-{[4-(3-pyridin-2-yl-1H-pyrazol-5-yl)piperidin-1-yl]methyl}phenyl)pyrazolo[1,5-a]pyrimidine] | > 10 | 
17 | COC(=O)c1cc2nc(-c3ccc(CN4CCC(c5n[nH]c(-c6ccccn6)n5)CC4)cc3)c(-c3ccccc3)cn2n1 [Example 77, Methyl 6-phenyl-5-(4-{[4-(5-pyridin-2-yl-1H-1,2,4-triazol-3-yl)piperidin-1-yl]methyl}phenyl)pyrazolo[1,5-a]pyrimidine-2-carboxylate] | < 10 | 
18 | NC(=O)c1cc2nc(-c3ccc(CN4CCC(c5n[nH]c(-c6ccccn6)n5)CC4)cc3)c(-c3ccccc3)cn2n1 [Example 78, 6-Phenyl-5-(4-{[4-(5-pyridin-2-yl-1H-1,2,4-triazol-3-yl)piperidin-1-yl]methyl}phenyl)pyrazolo[1,5-a]pyrimidine-2-carboxamide] | > 10 | 
19 | O=C(O)c1cc2nc(-c3ccc(CN4CCC(c5n[nH]c(-c6ccccn6)n5)CC4)cc3)c(-c3ccccc3)cn2n1 [Example 79, 6-Phenyl-5-(4-{[4-(5-pyridin-2-yl-1H-1,2,4-triazol-3-yl)piperidin-1-yl]methyl}phenyl)pyrazolo[1,5-a]pyrimidine-2-carboxylic acid] | < 10 | 
20 | Cc1nc2nc(-c3ccc(CN4CCC(c5nc(-c6ccco6)n[nH]5)CC4)cc3)c(-c3ccccc3)cn2n1 [Example 80, 5-[4-({4-[3-(2-furyl)-1H-1,2,4-triazol-5-yl]piperidin-1-yl}methyl)phenyl]-2-methyl-6-phenyl[1,2,4]triazolo[1,5-a]pyrimidine] | > 10 | 
21 | c1ccc(-c2cn3nccc3nc2-c2ccc(CN3CCC(c4nc(-c5ccco5)n[nH]4)CC3)cc2)cc1 [Example 81, 5-[4-({4-[3-(2-furyl)-1H-1,2,4-triazol-5-yl]piperidin-1-yl}methyl)phenyl]-6-phenylpyrazolo[1,5-a]pyrimidine] | < 10 | 
22 | c1ccc(-c2cn3ccnc3nc2-c2ccc(CN3CCC(c4nc(-c5ccco5)n[nH]4)CC3)cc2)cc1 [Example 82, 7-[4-({4-[3-(2-furyl)-1H-1,2,4-triazol-5-yl]piperidin-1-yl}methyl)phenyl]-6-phenylimidazo[1,2-a]pyrimidine] | > 10 | 
23 | Cc1nc2nc(-c3ccc(CN4CCC(c5nc(-c6ccccc6)n[nH]5)CC4)cc3)c(-c3ccccc3)cn2n1 [Example 83, 2-methyl-6-phenyl-5-(4-{[4-(3-phenyl-1H-1,2,4-triazol-5-yl)piperidin-1-yl]methyl}phenyl)[1,2,4]triazolo[1,5-a]pyrimidine] | > 10 | 
24 | COc1ccnc(-c2nc(C3CCN(Cc4ccc(-c5nc6nccn6cc5-c5ccccc5)cc4)CC3)n[nH]2)c1 [Example 84, 7-[4-({4-[5-(4-methoxypyridin-2-yl)-1H-1,2,4-triazol-3-yl]piperidin-1-yl}methyl)phenyl]-6-phenylimidazo[1,2-a]pyrimidine] | < 10 | 
25 | c1ccc(-c2cn3ccnc3nc2-c2ccc(CN3CCC(c4n[nH]c(-c5ccccn5)n4)CC3)cc2)cc1 [Example 85, 6-phenyl-7-{4-[4-(5-pyridin-2-yl-1H-[1,2,4]triazol-3-yl)-piperidin-1-ylmethyl]-phenyl}-imidazo[1,2-a]pyrimidine] | > 10 | 

Source: patent publication US8614218B2, “Fused bicyclic pyrimidines” (Bayer Intellectual Property GmbH, priority 2007, dated 2013)
